Measurements published in patent US20210379589A1, “Microfluidic Chip For Analysis Of Cell Motility And Methods For Using Same” (The Johns Hopkins University, priority 2013, published 2021).

Key:
MDA-MB-231 cells = test: Microchannel migration device assay, MDA-MB-231 cells; format: cell-based, human
Protocol: Cell seeding and live cell migration experiments: Cells were grown to continency, trypsinized, and resuspended in serum-free medium at 2×10^6 cells/ml. 50 μl of cell suspension was added to the cell inlet well. Cells were incubated in the device for 5-10 minutes at 37° C. to allow initial cell seeding at the base of “Y” channels. The cell suspension was then removed from the cell inlet port. The device was washed with DPBS before the addition of medium to the inlet ports of the device. In select experiments, PI3K activity was inhibited by the addition of 10 μM LY294002 in the medium through the entire course of migration. The migration chamber was moved to a temperature- and CO2-controlled stage-top live cell incubator (Okolab, Italy) mounted on the motorized stage of an inverted Nikon Eclipse Ti microscope (Nikon, Tokyo, Japan) with automated controls (NIS-Elements, Nikon). Migrating cells were imaged with a 10×-magnification phase contrast objective every 10 minutes for up to 16 hours. Analysis of Cell Migration: Video tiles were exported to Image1 for analysis. All cells that entered the channel were tracked while fully inside the channel and before reaching either end of the channel using the lmageJ MTrackJ plugin at 10 minute intervals. Cells were also dynamically traced with the imageJ polygon ROI capability at 30 minute intervals. Dividing cells were not tracked. Cell position data were used to calculate cell speed over each 10 minute interval, and these speeds were averaged to get an overall average speed for each cell. Additionally, the chemotactic index, defined as the cell displacement divided by the total distance travelled by the cell, was calculated. Cell shape data were used to calculate cell circularity and fit elliptical angle using the Measure function in ImageJ Statistical significance was assessed with non-paired Student's t-test. Cells were further defined as migratory or non-migratory. Migratory cells were defined as those cells which reached the bifurcation in the Y-shaped microchannel; all other cells were defined as non-migratory. […]

Hs578t cells = test: Microchannel migration device assay, Hs578t cells; format: cell-based; conditions: 10 μM LY294002, 400 μm-long Y-shaped migration channels; control 20±7%
Protocol: (§1) Cell seeding and live cell migration experiments: Cells were grown to continency, trypsinized, and resuspended in serum-free medium at 2×10^6 cells/ml. 50 μl of cell suspension was added to the cell inlet well. Cells were incubated in the device for 5-10 minutes at 37° C. to allow initial cell seeding at the base of “Y” channels. The cell suspension was then removed from the cell inlet port. The device was washed with DPBS before the addition of medium to the inlet ports of the device. In select experiments, PI3K activity was inhibited by the addition of 10 μM LY294002 in the medium through the entire course of migration. The migration chamber was moved to a temperature- and CO2-controlled stage-top live cell incubator (Okolab, Italy) mounted on the motorized stage of an inverted Nikon Eclipse Ti microscope (Nikon, Tokyo, Japan) with automated controls (NIS-Elements, Nikon). Migrating cells were imaged with a 10×-magnification phase contrast objective every 10 minutes for up to 16 hours. Analysis of Cell Migration: Video tiles were exported to Image1 for analysis. All cells that entered the channel were tracked while fully inside the channel and before reaching either end of the channel using the lmageJ MTrackJ plugin at 10 minute intervals. Cells were also dynamically traced with the imageJ polygon ROI capability at 30 minute intervals. Dividing cells were not tracked. […]

Bt549 cells = test: Microchannel migration device assay, Bt549 cells; format: cell-based; conditions: 10 μM LY294002, 400 μm-long Y-shaped migration channels; control 32±8%
Protocol: as §1

O=c1cc(N2CCOCC2)oc2c(-c3ccccc3)cccc12 [LY294002]
migratory cell population (MDA-MB-231 cells; 10 μM LY294002, 200 μm-long microchannels, control 25%): 65%
ratio of contact guided cells (MDA-MB-231 cells; 10 μM LY294002, 200 μm-long microchannels, control 66%): 93%
percentage of migratory cells (MDA-MB-231 cells; 10 μM LY294002, 400 μm-long Y-shaped migration channels, control 22±3%): 34±8%
percentage of migratory cells (Hs578t cells): 15±2%
percentage of migratory cells (Bt549 cells): 19±1%
